In patent publication US20140011889A1, “Resveratrol-Containing Compositions and Methods of Use for Cardiac-Related Diseases” (Resveratrol Partners, LLC, priority 2010, published 2014):

Columns and labels:
[1] = test system: isolated perfused rat hearts; test: Isolated working rat heart, ischemia/reperfusion, cardiac function (Example 6); format: in vivo, Sprague-Dawley rats
Procedure: Isolated working heart preparation. After completing the feeding protocol, the animals were anesthetized with sodium pentobarbital (80 mg/kg, intraperitoneally) (Abbott Laboratories, North Chicago, Ill., USA), and heparin sodium (500 U/kg, intravenously) (Elkins-Sinn Inc., Cherry Hill, N.J., USA) was used as an anticoagulant. After deep anesthesia, the hearts were excised, the aorta was cannulated, and the hearts were perfused through the aorta in Langendorff mode at a constant (100 cm of water) perfusion pressure at 37° C. with Krebs-Henseleit bicarbonate for a 5 min washout period as described previously. Ray et al. (1999) Free Rad Biol Med 27:160-9.
During the washout period, the left atrium was cannulated, and the Langendorff preparation was switched to the working mode for 10 min with a left atrial filling pressure of 17 cm H2O; the aortic afterload pressure was set to 100 cm of water. At the end of 10 min, the baseline cardiac function such as heart rate (HR, beats/min), aortic flow (AF, ml/min), coronary flow (CF, ml/min), left ventricular developed pressure (LVDP, mmHg) and first derivative of developed pressure (LVdp/dt, mmHg/sec) were recorded. Later, 30 min of global ischemia was initiated by clamping the left atrial inflow and aortic outflow lines at a point close to their origins. After 30 min, reperfusion was initiated for 120 min by unclamping the atrial inflow and aortic outflow lines. The first 10 min of reperfusion was in Langendorff mode to avoid ventricular fibrillation, and then the hearts were switched to an anterograde working mode. Ray et al. (1999) Free Rad Biol Med 27:160-9.
Cardiac function assessment. After 10 min of the working mode, baseline parameters were recorded. To monitor the recovery of the heart, the left ventricular cardiac function was recorded after 60 and 120 min of reperfusion. Six rats were present in each group. […] Coronary flow was measured by timed collection of the coronary effluent dripping from the heart. During the entire experiment, the aortic pressure was monitored using a Gould P23XL pressure transducer (Gould Instrument Systems Inc., Valley View, Ohio, USA) connected to the side arm of the aortic cannula; the signal was amplified using a Gould 6600 series signal conditioner (Gould Instrument Systems Inc.). […] The heart rate, left ventricular developed pressure, and the first derivative of developed pressure were all calculated from the continuously generated pressure signal.
At the end of the 21 days, the animals were sacrificed, their hearts were excised and isolated, and ischemia was induced for 30 min by terminating the coronary flow (as described in the methods section). This was then followed by 2 h of reperfusion in the working mode; during the reperfusion left ventricular function was monitored.

[2] = test system: cardiomyocytes; test: Cardiomyocyte apoptosis, TUNEL (Example 6); format: in vivo, Sprague-Dawley rats
Procedure: Cardiomyocyte apoptosis. Immunochemical detection of apoptotic cells was performed using the terminal deoxynucleotidyl transferase-medicated dUTP nick-end labeling (TUNEL) method. Malik et al. […] The sections were incubated with mouse monoclonal antibody recognizing cardiac myosin heavy chain to specifically detect apoptotic cardiomyocytes. The fluorescence staining was viewed with a confocal laser microscope. The number of apoptotic cells was counted and expressed as a percent of the total myocyte population. At the end of each experiment the hearts were either subjected to TTC staining to determine infarct size or TUNEL staining to detect apoptosis.

[3] = test system: miRNA expression, rat heart; test: Global miRNA expression profiling (TLDA array) in ischemia-reperfused rat heart; details: for miR-21 expression, up: vs basal level control heart
Procedure: Global miRNA expression profiling in ischemia-reperfused rat heart. MicroRNA profiles were analyzed by TLDA array specific for 586 miRNA and five endogeneous control for rat.
Male Sprague-Dawley rats weighing between 250 and 300 g were fed ad libitum regular rat chow with free access to water until the start of the experimental procedure.
Micro RNA isolation and cDNA preparation. Total RNA from rat heart samples were isolated using Trizol reagent (Invitrogen) and further purified using mirVANA miRNA isolation kit (Ambion).
Profiling of miRNA expression. miRNA expression profiling were carried out using quantitative real-time PCR method by TaqManH Gene Signature Rodent Arrays on a 384 well micro fluidic card in 7900HT Realtime PCR machine (Applied Biosystem, Foster City) according to manufacturer's recommendation. Each miRNA were quantified by two specific amplicon primers and one specific probe. […] In addition, each array contains six control assays—five carefully selected candidate endogenous control assays, and one negative control assay.
Analyses of miRNA gene expression data. Realtime PCR data expressed as Ct values from array A and B were combined using R script (provided by GeneSpring Informatics Support Team) and processed using GeneSpringGX 11.0.2 software (Agilent Technologies, Santa Clara).

## Oc1ccc(/C=C/c2cc(O)cc(O)c2)cc1 [resveratrol, 3,4′,5-trihydroxy-trans-stilbene]
[1]; 100 mg/kg, gavage 21 days
  aortic flow and developed pressure: no aortic flow or developed pressure
[1]; 2.5 and 25 mg/kg, gavage 21 days, 30 min ischemia, 2 h reperfusion
  cardioprotection (aortic flow, LVDP, maximum LVdP/dt): conferred cardioprotection
[1]; above 25 mg/kg, gavage 21 days
  ventricular function (aortic flow, LVDP, maximum LVdP/dt): ventricular function was deteriorated
[1]; rat, doses up to 100 mg/kg
  hormetic action (dose-response of cardioprotection): displayed hormetic action
[2]; 2.5 and 25 mg/kg
  cardiomyocyte apoptosis: significantly reduced
[2]; above 50 mg/kg
  number of apoptotic cardiomyocytes: significant increased
[3]; FIG. 15C
  principal component analysis of miRNA expression, IR treated samples: remarkably similar to BL vehicle sample
[3]; IR
  miR-21 expression, up: 61.5 fold
[3]; basal level
  miR-21 expression, up: 391.4 fold
[3]; of the 25 miRNAs of Table 11, both treatments
  miRNAs whose up or down regulation in IR control was reversed in the opposite direction: 11
